Entries after “also recorded” stand apart in the source; their conditions may differ.
Columns and labels:
Calu-3 monolayers = experiment: Transepithelial short-circuit current (Isc) across unstimulated Calu-3 monolayers; assay type: cell-based, human; conditions: compound added to mucosal (or serosal) perfusion; L-ascorbic acid 100 μM; dehydroascorbic acid 10, 100 or 300 μM
How it was run: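 Unstimulated Calu-3 monolayers given compound on the mucosal side at increasing concentrations. Chloride current recorded with serosal-to-mucosal chloride gradient at 0 mV, 2 mV pulses. Forskolin (20 μM, serosal) used for comparison.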

ΔF508 CFTR = molecular target: T1, ΔF508 CFTR (Mus musculus, UniProt P26361, DEL508-508); experiment: Rectal potential difference (RPD) in mice homozygous for ΔF508 CFTR; assay type: in vivo
T1 construct: from tissue; host or cells: rectal mucosa of living ΔF508 CF mice (C57Bl6/J), TMAO-treated or water-injected
T1 sequence (P26361 with tags, fused parts or gaps DEL508-508): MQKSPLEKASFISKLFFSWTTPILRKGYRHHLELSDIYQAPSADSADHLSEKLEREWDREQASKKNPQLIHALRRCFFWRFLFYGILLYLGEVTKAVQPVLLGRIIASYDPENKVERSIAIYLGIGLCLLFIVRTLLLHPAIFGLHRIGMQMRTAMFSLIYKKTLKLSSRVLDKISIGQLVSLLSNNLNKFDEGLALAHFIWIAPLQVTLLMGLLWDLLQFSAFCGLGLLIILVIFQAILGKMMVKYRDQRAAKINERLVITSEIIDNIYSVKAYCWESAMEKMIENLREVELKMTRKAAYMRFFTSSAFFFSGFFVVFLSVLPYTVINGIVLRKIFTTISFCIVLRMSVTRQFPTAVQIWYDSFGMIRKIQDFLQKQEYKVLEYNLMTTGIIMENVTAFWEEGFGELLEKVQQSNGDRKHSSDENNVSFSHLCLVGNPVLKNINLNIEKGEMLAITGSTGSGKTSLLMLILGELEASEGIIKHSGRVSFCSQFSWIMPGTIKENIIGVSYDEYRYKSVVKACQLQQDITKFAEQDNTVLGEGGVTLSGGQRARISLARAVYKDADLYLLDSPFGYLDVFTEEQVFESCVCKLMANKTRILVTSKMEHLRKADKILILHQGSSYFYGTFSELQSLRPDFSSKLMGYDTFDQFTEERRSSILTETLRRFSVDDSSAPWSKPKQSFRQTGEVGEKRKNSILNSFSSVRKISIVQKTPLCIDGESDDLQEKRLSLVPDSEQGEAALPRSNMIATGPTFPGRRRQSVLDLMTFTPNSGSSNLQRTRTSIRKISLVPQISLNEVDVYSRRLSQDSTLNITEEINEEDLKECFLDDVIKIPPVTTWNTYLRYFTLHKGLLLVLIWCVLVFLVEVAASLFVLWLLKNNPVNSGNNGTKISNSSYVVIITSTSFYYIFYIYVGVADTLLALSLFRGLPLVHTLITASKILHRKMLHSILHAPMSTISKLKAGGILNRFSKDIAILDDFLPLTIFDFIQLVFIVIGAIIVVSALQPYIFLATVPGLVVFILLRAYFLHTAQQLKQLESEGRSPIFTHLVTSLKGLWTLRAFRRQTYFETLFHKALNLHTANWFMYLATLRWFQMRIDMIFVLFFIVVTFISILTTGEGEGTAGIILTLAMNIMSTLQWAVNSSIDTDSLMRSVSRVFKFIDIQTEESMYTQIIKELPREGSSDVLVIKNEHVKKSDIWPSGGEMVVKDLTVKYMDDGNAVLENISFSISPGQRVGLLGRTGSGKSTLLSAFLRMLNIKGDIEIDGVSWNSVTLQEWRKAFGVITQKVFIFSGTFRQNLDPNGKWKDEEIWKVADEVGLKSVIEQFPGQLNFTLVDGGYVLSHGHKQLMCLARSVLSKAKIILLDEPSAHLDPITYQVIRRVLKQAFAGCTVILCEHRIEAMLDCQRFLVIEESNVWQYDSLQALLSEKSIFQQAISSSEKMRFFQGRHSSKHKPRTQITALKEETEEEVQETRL
Excerpt: CF mice and rectal potential difference (RPD) measurements. Gene-targeted mice homozygous for the ΔF508 mutation (C57Bl6/J) received Golytely® (Braintree Laboratories, Inc.), a diarrhetic supplement, in the drinking water to increase their lifespan (Clarke, L. L., Gawenis, L. R., Franklin, C. L. & Harline, M. C. (1996) Lab. Anim. Sci. 46, 612-8). To correct the maturation defect of ΔF508 CFTR we used the chemical chaperone trimethylamine oxide (TMAO) (Brown, C. R., Hong-Brown, L. Q., Biwersi, J., Verkman, A. S. & Welch, W. J. (1996) Cell Stress Chaperones 1, 117-25). CF mice were injected with 4 mg/g TMAO from a 4 M stock solution every 8 hours for 24 hours, which is a regimen to partially correct the ΔF508 defect in CF mice (Fischer, H., Barbry, P., Illek, B., Sartori, C., Fukuda, N. & Matthay, M. A. (2001) Am. J. Physiol. 281, L52-L57). Controls were water-injected. The RPD assay was performed on mice that were anesthetized with 0.1 mg/g body weight ketamine and 0.01 mg/g body weight azepromazine. RPD was sensed with a 1 M NaCl agar bridge inserted ˜1 cm into the rectum vs. a subcutaneous needle filled with 1 M NaCl. Measurements were performed in Cl free solution containing 100 μm amiloride and 5 mM Ba(OH)2 to isolate the Cl-selective RPD.
In this Example, it was determined whether L-ascorbic acid affected the functional activation of ΔF508 CFTR in a CF-affected organism in vivo. Using gene-targeted mice homozygous for the ΔF508 mutation it was shown previously that the osmolyte trimethylamine oxide (TMAO) effectively supported ΔF508 CFTR trafficking in vivo (Fischer, H., Barbry, P., Illek, B., Sartori, C., Fukuda, N. & Matthay, M. A. (2001) Am. J. Physiol. 281, L52-L57). Accordingly, the effect of L-ascorbic acid was tested in homozygous ΔF508 CF mice treated with TMAO by using the RPD assay as a functional end point measure for mutant ΔF508-CFTR function. FIG. 24A illustrates that TMAO-treated CF mice manifested a detectable response to a maximal dose of L-ascorbic acid (1 mM) or its epimer D-isoascorbic acid (300 μM) and RPD hyperpolarized on average by −3.2±0.8 mV (n=4) and −3.6±1.8 mV (n=3), respectively (FIG. 24B).

[1] = tested on: nasal potential difference (NPD); experiment: Nasal potential difference (NPD) measurements in healthy volunteers, Example 12; assay type: in vivo, human
Procedure: Nasal potential difference (NPD) measurements. Measurements of NPD were performed in healthy volunteers as described (Illek, B. & Fischer, H., Supra). The study protocol was approved by the Internal Review Board at Children's Hospital Oakland. Solutions and test drugs were perfused into one nostril at ˜5 ml/min at room temperature (23-25° C.). NaCl solution contained (in mM): 145 NaCl, 4 KCl, 1 CaCl2, 1 MgCl2, 10 Hepes, pH=7.4. In Cl free solutions all Cl salts were replaced by the respective gluconate salts. All solutions were sterile filtered before use. NPD was sensed with an Ag/AgCl/agar electrode placed in the perfusing tube with respect to an electrode placed on a slightly scratched skin part on the forearm (Alton, E. W. F. W., Currie, A. D., Logan-Sinclair, R., Warner, J. O., Hodson, M. E. & Geddes, D. M. (1990) Eur. Resp. J. 3, 922-926).
In vivo effects of ascorbic acid on Cl transport were evaluated using the nasal potential difference (NPD) assay for Cl channel function. The Cl-selective NPD was measured in amiloride-containing (100 μm) and chloride-free solutions. These experiments served as an important control to verify the significance of the transepithelial results obtained with ascorbic acid in Calu-3 cells. In close agreement with the transepithelial measurements, NPD was progressively hyperpolarized during the exposure of the nasal mucosa to L-ascorbic acid (by −6.7±0.4 mV, n=3) and the cAMP-stimulating agonist isoproterenol (by −5.5±0.5 mV, n=4) (FIG. 21C). A dose of 300 μm L-ascorbic acid hyperpolarized NPD to 72% of the NPD in presence of the cAMP agonist isoproterenol (10 μM).

[2] = tested on: intracellular cAMP levels; experiment: Cyclic AMP measurements in Calu-3 cells (competitive immunoassay); assay type: cell-based, human
Procedure: Cyclic AMP measurements. […] Cellular cAMP levels were measured in non-acetylated samples using a competitive immunoassay for cAMP (R&D systems, Minneapolis, Minn.). The regulatory role of vitamin C on Cl ion channel activity was studied in Calu-3 airway cells which express large amounts of native CFTR as their major Cl conductance ([…]., Widdicombe, J. H. & Wine, J. J. (1994) Am. J. Physiol. 266, […]-[…]). […] Details of the single channel recording are illustrated in FIG. 20C. […] At negative potentials no channel openings were resolved indicating Cl-over-gluconate selectivity. Cyclic AMP is the major intracellular messenger for the activation of CFTR. We tested the possibility that L-ascorbic acid increased intracellular cAMP levels [cAMP], by either turning on cAMP production or preventing cAMP degradation. FIG. 20E compares whole cell cAMP levels of Calu-3 cells challenged with either increasing concentrations of L-ascorbic acid or the cAMP agonist forskolin.

O=C1O[C@H](C(O)CO)C(O)=C1O (stereo partly drawn) [L-ascorbic acid, L-xyloascorbic acid]
transepithelial chloride currents in unstimulated tissue (Calu-3 monolayers): very effectively stimulated transepithelial chloride secretion; also recorded: very effectively stimulated transepithelial chloride currents
RPD hyperpolarized on average by (ΔF508 CFTR; CF mice treated with 4 mg/g TMAO for 24 hours, L-ascorbic acid 1 mM, n=4): −3.2±0.8 mV
ΔRPD (ΔF508 CFTR; water-injected control CF mice, L-ascorbic acid or D-isoascorbic acid, n=9): −1.1±0.4 mV
NPD hyperpolarized to % of the NPD in presence of isoproterenol ([1]; 300 μm L-ascorbic acid vs isoproterenol 10 μM): 72%
NPD hyperpolarized by ([1]; L-ascorbic acid, amiloride (100 μm), chloride-free, n=3): −6.7±0.4 mV
cAMP level stimulated by 100 nM forskolin ([2]; 300 μM L-ascorbate + 100 nM forskolin): did not alter the elevated cAMP level
resting intracellular cAMP level ([2]; L-ascorbate from 100 μM to 10 mM, 15 min): did not result in a detectable increase

From patent US8138158B2, “Compositions and methods for therapy for diseases characterized by defective chloride transport” (Children's Hospital & Research Center at Oakland, priority 1997, dated 2012)
